Experimental findings from US20240082392A1, “USE OF SYNTHETIC PEPTIDE FOR THE INDUCTION OF ANTITUMOR AND ANTIVIRAL IMMUNITY” (CENTRO DE INGENIERÍA GENÉTICA Y BIOTECNOLOGÍA, priority 2020, published 2024) are described below.

Molecules are shown by their SMILES. Where a SMILES comes first, the peptide text is derived from it. Bridges are numbered along the chain shown (N, C = ends).

The IC50 is the concentration that inhibits the measured activity by half.

Series [1] relates to L1210 cells. The series is described as follows: Vaccination with treated tumor cells, then challenge with live cells. The class given is in vivo, DBA/2 mice. Conditions: vaccinated with cells treated with 5 μM CX4945 for 24 hours. The procedure: In order to explore whether the cell death induced by the peptide identified as SEQ ID NO: 1 had any immunomodulatory effect, a vaccination schedule was performed in mice with tumor cells previously treated with the peptide identified as SEQ ID NO: 1. For this purpose, 1×10^6 L1210 cells treated in vitro with 40 μM of the peptide identified as SEQ ID NO: 1, or time-matched untreated cells during 3 hours were subcutaneously injected in 0.1 mL in the inguinal area into right flank of 6-8 weeks female DBA/2 mice. After seven days, 1×10^6 live L1210 cells were inoculated on opposite flank, and tumor growth and volume were evaluated until day 45. Tumors were measured with Vernier calipers, three times a week, tumor volume was estimated using the formula: Volume=width^2 (mm)×length/2 (mm). As a positive control, cells treated with 15 μM DOX for 24 hours were used for vaccination. A group vaccinated with 5 μM CX4945-treated cells for 24 hours was also included. In total 4 groups were formed of 10 mice each group.

The next series deals with 3LL-OVA cells. The series is described as follows: Cellular immune response, IFN-γ ELISPOT after inoculation of treated cells. To be noted: 3LL-OVA cells treated with 40 μM peptide 3 hours, 5 μM CX4945 or 40 μM Tat 3 hours; lymph node cells after 5 days. The class given is in vivo, C57/BL6 mice.
The test system of another series is PDL1 in H460 cells. The series is described as follows: PDL1 levels by flow cytometry. Conditions: 30 μM peptide, 5 μM CX4945 or 30 μM Tat peptide, 24 hours. The class given is cell-based. The procedure: (§1) Immune checkpoints are currently an important target in cancer immunotherapy, due to their immunosuppressive role during the course of this disease. Taking this into account, effect of the peptide identified as SEQ ID NO: 1 on modulation of PDL1 levels in two non-small cell lung cancer cell lines: […], was evaluated. For that, 5×10^4 cells were seeded in 24-well plates. The day after, cells were treated with 30 μM peptide identified as SEQ ID NO: 1; 5 μM CX4945 or 30 μM Tat peptide, for 24 hours. After treatment, cells were collected, staining with an anti-PDL1 antibody and analyzed by flow cytometry.
A general note: A flow cytometer gives signals particle by particle.

In a further series the test system is PDL1 in A549 cells. The series can be described thus: PDL1 levels by flow cytometry. The class given is cell-based. Conditions: 30 μM peptide, 5 μM CX4945 or 30 μM Tat peptide, 24 hours. The procedure:
as §1

The test system of another series is HL-60 cells. The series is described as follows: Phagocytosis of treated tumor cells by M1 and M2 macrophages. The class given is cell-based. Conditions: peptide 40 μM and 10 μM 5 hours, CX4945 5 μM 24 hours, Tat 40 μM 5 hours. The procedure: (§2) Treatment with the peptide identified as SEQ ID NO: 1, as described in examples 2 and 3, is capable of increasing “eat me” signals and decreasing “don't eat me” signals. Therefore, it fostered to evaluate whether the treatment with the peptide identified as SEQ ID NO: 1 facilitate phagocytosis of tumor cells by macrophages, and whether this is performed by M1 or M2 macrophages. For that purpose, HL-60 and OCI-AML3 leukemia tumor cell lines were previously stained with 0.5 μM CFSE and treated with 10 or 40 μM of the peptide identified as SEQ ID NO: 1, for five hours, 5 μM CX4945 for 24 hours or 40 μM Tat during 5 hours. Subsequently, cells were washed and co-cultured with each type of M1 and M2 macrophages, at a 1:1 ratio for three hours. Different types of macrophages were obtained from PBMC of healthy donors by Ficoll™ gradient. Monocytes were purified by positive selection, using CD14 beads with an MS column (Miltenyi Biotech, Germany), obtaining 96% purity. Monocytes were seeded at 0.25×10^6 cells/mL/well, in 12-wells plates and were induced with 100 ng/mL of GM-CSF, for seven days, and with 50 ng/mL of IFN-γ for last 24 hours, to obtain M1 macrophages. M2 macrophages were induced with 50 ng/mL of M-CSF for seven days and 100 ng/mL of IL-10 for last 24 hours. […]

For the next series, the system named is OCI-AML3 cells. The series is described as above. The class given is cell-based. To be noted: peptide 40 μM and 10 μM 5 hours, CX4945 5 μM 24 hours, Tat 40 μM 5 hours. The procedure:
as §2

Series [2] relates to Lewis Lung Carcinoma cells. The series is described as follows: Anti-PDL1 therapy in a murine model of lung cancer. The class given is in vivo, C57/BL6 mice. From the text:
Taking into account the results obtained in the in vitro test, it was decided to evaluate whether the use of the peptide identified as SEQ ID NO: 1 improved the antitumor efficacy of anti-PDL1 therapy in a murine model of lung cancer. For that, 2×10^5 Lewis Lung Carcinoma cells were subcutaneously implanted (day 0) in 6-8 weeks old C57/BL6 female mice with 17-19 grams of body weight. Nine days after the tumor challenge, 42 animals with 40 mm^3 tumors were randomized into six groups with seven mice each. CX4945 (75 mg/kg) was orally administered in 25 mM NaH2PO4 buffer twice daily. 40 mg/kg of the peptide identified as SEQ ID NO: 1 and 100 μg anti-PDL1 antibody (clone 10F.9G2, isotype rat IgG2b kappa) were intraperitoneally applied. Tumor volume and body weight were determined 3 times a week for 40 days. Tumor volume was measured and calculated as described in Example 7.

In series [3] the test system is L1210 cells. The series is described as follows: Tumor microenvironment in DBA/2 mice: serum cytokines and intratumoral cell populations. The class given is in vivo. Conditions: for modulation in cytokine levels (IL12p70, TNF-α, IL-6, IL-10): Tat 20 mg/kg intratumoral, DOX 10 mM intratumoral, CX4945 75 mg/kg oral twice a day, five days; for intratumoral Foxp3+ T cell levels: peptide 20 mg/kg, DOX 10 mM, Tat 20 mg/kg, CX4945 75 mg/kg oral. The procedure:
To study whether the peptide identified as SEQ ID NO: 1 was capable of modulating the tumor microenvironment, female DBA/2 mice, 6-8 weeks old, and between 17-19 grams were inoculated with 0.5×10^6 L1210 cells, subcutaneously, into right flank (inguinal inoculation). Seven days after tumor challenge, 42 mice with palpable and non-measurable tumor were selected, which were random assigned to six groups of seven animals each. […] DOX (10 mM) and Tat peptide (20 mg/kg), were administered intratumorally, in a final volume of 50 μL, a daily inoculation for five days. The compound CX4945 (75 mg/kg) was administered in 25 mM NaH2PO4 buffer, twice a day, orally, for five days. Seven days after the end of the treatment, the mice were euthanized to obtain the tumors (day 18 of the procedure). Before sacrificing the mice, blood samples were obtained for the cytokines (IL-6, IL-10, IL-12p70, TNF-α) detection by ELISA. Tumors were cut into small pieces and transferred to gentleMACS tubes with RPMI medium, supplemented with an enzyme cocktail from Tumor Dissociation kit (Miltenyi Biotech, Germany). Tumor dissociation was performed using the gentleMACS™ Dissociator kit and a tumor dissociation kit (Miltenyi Biotech, Germany). The digested suspension was filtered, centrifuged and labeled with specific antibodies against CD8, CD4, Foxp3, CD11c, CD86 and CD40.

The subject of series [4] is RagOT-I cells / dendritic cells matured with treated 3LL cells. The series can be described thus: In vitro activation of OT-I CD8+ T cells by dendritic cells, IFN-γ ELISA. The class given is cell-based, mouse. Conditions: versus negative control, CX4945 and Tat peptide. The procedure: Additionally, the ability of activating CD8+ T cells in vitro by these dendritic cells matured with peptide-treated 3LL cells was evaluated. For this purpose, dendritic cells previously co-incubated with tumor cells, under the conditions described above, were washed and loaded with the […] peptide from OVA, MHC class I restricted, at different concentrations (0, 10, 30 and 100 pg/mL) during three hours. After that time, they were washed again and co-incubated with RagOT-I cells in a 1:1 ratio for 48 hours. IFN-γ production was finally quantified by ELISA. RagOT-I cells co-incubated with dendritic cells previously incubated with untreated 3LL cells constituted the negative control of experiment.
(In general: In an ELISA, binding on a coated surface is turned into a signal by an enzyme label.)

Series [5] has as its system OCI-AML3 and HL-60 tumor cells. To be noted: read-out: IC50 dose.
The next series relates to K562 cells. The series is described as follows: NK cytotoxic activity, Cr51 release. The class given is cell-based. To be noted: 50 μM. The procedure:
The release of danger signals such as HSP70 and CRT has been reported to be involved in increasing the susceptibility of tumor cells toward cytotoxic activity of NK cells. Therefore, the effect of the peptide identified as SEQ ID NO: 1 on the susceptibility of tumor cells toward NK cytotoxic activity was evaluated. To do that, the classic target cells to NK activity, K562 cells, were employed. Target cells were labeled with Cr^51 (approximate specific activity: 100 μCi/μg) by incubation for 70 minutes at 37° C. Subsequently, target cells were washed three times with RPMI medium supplemented with 2% FBS and seeded in 96-well plates, at a target:effector ratio of 1:25. On the other hand, NK cells were isolated from peripheral blood mononuclear cells (PBMC) of healthy donors, by negative selection, using magnetic beads (Miltenyi Biotec). Thus, CD56+CD3− NK cells were obtained with more than 96% purity. The peptide identified as SEQ ID NO: 1 was added to the co-culture at 12.5; 25 and 50 μM. After 4 hours of incubation, supernatant was collected for the measurement of Cr^51 release using a scintillation counter. The percentage of specific lysis was calculated as follows: […]
Target cells without coincubation with effector cells were employed as spontaneous lysis control. Target cells with the peptide identified as SEQ ID NO: 1 constitute the toxicity control of the peptide.

As to `O=C(O)c1ccc2c(c1)nc(Nc1cccc(Cl)c1)c1ccncc12` [CX4945], in the series on L1210 cells [1], the “vaccine effect of treated cells” value is on record as “did not induce any vaccine effect”. In the series on 3LL-OVA cells, the “response of IFN-γ-secreting effector cells (ELISPOT) against OVA and OVA class I peptide” value is “not able to generate this type of response”. Also, the “% PDL1+ cells” value in the series with PDL1 in H460 cells was found to be 25.2%; with PDL1 in A549 cells, 29.6%. The IFM is 15.23 in the series with PDL1 in H460 cells and 16.2 with PDL1 in A549 cells. The PDL1 expression result in the series on PDL1 in H460 cells (in words) and in the series with PDL1 in A549 cells (in words) was “Differences were not observed” in each case. The “susceptibility to be phagocytosed by M1 macrophages” value in the series with HL-60 cells and in the series with OCI-AML3 cells was “not observed” throughout. Also, the “tumor volume, combined with anti-PDL1 antibody” value in series [2] (as alone, plus 100 μg anti-PDL1 antibody intraperitoneal, days 9, 12, 15, 18) is “not observed”. Besides, the “tumor progression (tumor volume), alone” value in series [2] (peptide 40 mg/kg intraperitoneal or CX4945 75 mg/kg oral twice daily, days 9-13) is recorded as “not observed”. Further, in the series on L1210 cells [3], the “modulation in cytokine levels (IL12p70, TNF-α, IL-6, IL-10)” value is “not observed”. For the same compound, in the series on L1210 cells [3], the “intratumoral Foxp3+ T cell levels” value was “not observed”.

`COc1cccc2c1C(=O)c1c(O)c3c(c(O)c1C2=O)C[C@@](O)(C(=O)CO)C[C@@H]3O[C@H]1C[C@H](N)[C@H](O)[C@H](C)O1` [DOX, doxorubicin]: the “IFN-γ production by CD8+ OT-I cells” value in [4] was “significantly higher”. Further, in the series with L1210 cells [3], the “modulation in cytokine levels (IL12p70, TNF-α, IL-6, IL-10)” value was “not observed” and the “intratumoral Foxp3+ T cell levels” value is “significant decrease”.

`CSCC[C@@H]1NC(=O)[C@H](Cc2c[nH]c3ccccc23)NC(=O)[C@@H](NC(=O)[C@H](C)NC(=O)[C@H](CCC(N)=O)NC(=O)[C@@H]2CCCN2C(=O)[C@@H]2CCCN2C(=O)[C@H](CCCNC(=N)N)NC(=O)[C@H](CCCNC(=N)N)NC(=O)[C@H](CCCNC(=N)N)NC(=O)[C@H](CCC(N)=O)NC(=O)[C@H](CCCNC(=N)N)NC(=O)[C@H](CCCNC(=N)N)NC(=O)[C@H](CCCCN)NC(=O)[C@H](CCCCN)NC(=O)[C@H](CCCNC(=N)N)NC(=O)CN)CSSC[C@@H](C(=O)O)NC(=O)[C@H]([C@@H](C)O)NC(=O)CNC(=O)[C@H](CC(C)C)NC(=O)[C@H](Cc2c[nH]cn2)NC(=O)[C@H](CCCNC(=N)N)NC(=O)[C@@H]2CCCN2C(=O)[C@H](CO)NC1=O` [peptide identified as SEQ ID NO: 1] (H-GRKKRRQRRRPPQACWMSPRHLGTC-OH; disulfide 15-25): the IC50 in [5] came out at 40 µM. The “toxicity to target cells” value in the series on K562 cells was “showed toxicity”.
